In ChEMBL document CHEMBL3112504, “Design, structural and biological characterization of a VEGF inhibitor β-hairpin-constrained peptide” (2014):
The source made the active and inactive calls. No cut-off for these calls is given here. Peptide text beside a SMILES is read from it.

What was measured:
[1] = system: HUVEC; test: Inhibition of VEGFR in HUVEC assessed as reduction in Akt phosphorylation at 25 to 100 ng/ml after 15 mins by Western blotting analysis; type: cell-based; settings: Homo sapiens
[2] = system: HUVEC; test: Inhibition of VEGFR in HUVEC assessed as reduction in ERK1/2 phosphorylation at 25 to 100 ng/ml after 15 mins by Western blotting analysis; type: cell-based; settings: Homo sapiens
[3] = system: HUVEC; test: Inhibition of VEGF-induced HUVEC proliferation at 50 to 100 […] after 48 hrs by CyQuant cell proliferation assay; type: functional, Homo sapiens
[4] = system: HUVEC; test: Induction of proapoptosis in HUVEC assessed as increase in caspase 3 activity at 25 to 100 ng/ml after 8 hrs by fluorimetric assay; type: functional, cell-based; settings: Homo sapiens
[5] = system: HUVEC; test: Induction of proapoptosis in VEGF-treated HUVEC assessed as increase in caspase 3 activity after 8 hrs by fluorimetric assay; type: functional, cell-based; settings: Homo sapiens
[6] = system: HUVEC; test: Inhibition of VEGFR in HUVEC assessed as reduction in VEGF-induced Akt phosphorylation at 25 to 100 ng/ml after 15 mins by Western blotting analysis; type: cell-based; settings: Homo sapiens
[7] = system: HUVEC; test: Induction of proapoptosis in VEGF-treated HUVEC assessed as increase in caspase 3 activity at 25 to 100 ng/ml after 8 hrs by fluorimetric assay; type: functional, cell-based; settings: Homo sapiens
[8] = system: HUVEC; test: Inhibition of VEGFR in HUVEC assessed as reduction in VEGF-induced ERK1/2 phosphorylation at 25 to 100 ng/ml after 15 mins by Western blotting analysis; type: cell-based; settings: Homo sapiens
[9] = system: HUVEC; test: Induction of proapoptosis in VEGF-treated HUVEC assessed as increase in caspase 3 activity at 100 ng/ml after 8 hrs by fluorimetric assay; type: functional, cell-based; settings: Homo sapiens
[10] = system: HUVEC; test: Inhibition of VEGFR in HUVEC assessed as reduction in VEGF-induced ERK1/2 phosphorylation at 100 ng/ml after 15 mins by Western blotting analysis; type: cell-based; settings: Homo sapiens
[11] = system: HUVEC; test: Inhibition of VEGFR in HUVEC assessed as reduction in VEGF-induced Akt phosphorylation at 100 ng/ml after 15 mins by Western blotting analysis; type: cell-based; settings: Homo sapiens

| Compound | inhibition [1] | inhibition [2] | inhibition (INH) [3] | Activity [4] | Activity [5] | inhibition [6] | Activity [7] | inhibition [8] | inhibition ([3]; Homo sapiens) | Activity [9] | inhibition [10] | inhibition [11] |
| --- | --- | --- | --- | --- | --- | --- | --- | --- | --- | --- | --- | --- |
| CC[C@H](C)[C@H](NC(=O)[C@H](Cc1c[nH]c2ccccc12)NC(=O)[C@H](CC(C)C)NC(=O)[C@H](CS)NC(=O)[C@H](CCC(N)=O)NC(=O)[C@@H](N)CCCCN)C(=O)N[C@@H](CCCNC(=N)N)C(=O)N[C@@H](CO)C(=O)NCC(=O)N[C@@H](CC(=O)O)C(=O)N[C@@H](CCCNC(=N)N)C(=O)N1CCC[C@H]1C(=O)N[C@@H](Cc1c[nH]c2ccccc12)C(=O)N[C@@H](Cc1ccc(O)cc1)C(=O)N[C@@H](CS)C(=O)N[C@H](C(=O)N[C@@H](CO)C(=O)O)[C@@H](C)O (H-KQCLWIRSGDRPWYCTS-OH) | inactive | inactive | >95% | inactive | Dose-dependent effect | Active | Active | Active |  |  |  |  |
| H-KPDRWSQWRSTYSLSIG-OH |  |  |  |  |  |  |  |  | inactive | inactive | inactive | inactive |
